The data set in a line: Stress stability of amorphous Cinacalcet Hydrochloride, assay by HPLC. Type of data set: physicochemical. The note with it: stressed in a closed vial at 60° C. for 24 hours. How it is done: A sample of amorphous Cinacalcet Hydrochloride from Example 1 was stressed in a closed vial at 60° C. for 24 hours. […] Vol 7 μm; temperature 40° C. sample preparation: approximately 10 mg of sample dissolved in 25 ml of eluent B gradient: [table] Area %/mg of starting material and stressed sample were compared

Counter-ions that a name gives are not always drawn.

Take `C[C@@H](NCCCc1cccc(C(F)(F)F)c1)c1cccc2ccccc12` [N-[1-(R)-(−)-(1-naphthyl)ethyl]-3-[3-(trifluoromethyl)phenyl]-1-aminopropane hydrochloride]: the “decrease in assay measured by HPLC (area %/mg of starting material and stressed sample compared)” value was “No decrease in assay”.
